Measured values published in ChEMBL document CHEMBL4613315, “Design of First-in-Class Dual EZH2/HDAC Inhibitor: Biochemical Activity and Biological Evaluation in Cancer Cells” (ACS Med Chem Lett, 2020).
pIC50: −log10 of the molar value.

How the values were obtained:
Histone deacetylase 5 = Histone deacetylase 5 (Homo sapiens, UniProt Q9UQL6); experiment: Inhibition of human recombinant HDAC5 using AMC-K(TFA)GL as substrate by fluorescence based assay
[1] = target: T1, Histone-lysine N-methyltransferase EZH2 (Homo sapiens, UniProt Q15910); experiment: Inhibition of human EZH2 using core histone as substrate at 100 uM incubated for 1 hr by fluorescence based assay relative to control
Target sequence in this assay (Q15910 whole entry, looked up): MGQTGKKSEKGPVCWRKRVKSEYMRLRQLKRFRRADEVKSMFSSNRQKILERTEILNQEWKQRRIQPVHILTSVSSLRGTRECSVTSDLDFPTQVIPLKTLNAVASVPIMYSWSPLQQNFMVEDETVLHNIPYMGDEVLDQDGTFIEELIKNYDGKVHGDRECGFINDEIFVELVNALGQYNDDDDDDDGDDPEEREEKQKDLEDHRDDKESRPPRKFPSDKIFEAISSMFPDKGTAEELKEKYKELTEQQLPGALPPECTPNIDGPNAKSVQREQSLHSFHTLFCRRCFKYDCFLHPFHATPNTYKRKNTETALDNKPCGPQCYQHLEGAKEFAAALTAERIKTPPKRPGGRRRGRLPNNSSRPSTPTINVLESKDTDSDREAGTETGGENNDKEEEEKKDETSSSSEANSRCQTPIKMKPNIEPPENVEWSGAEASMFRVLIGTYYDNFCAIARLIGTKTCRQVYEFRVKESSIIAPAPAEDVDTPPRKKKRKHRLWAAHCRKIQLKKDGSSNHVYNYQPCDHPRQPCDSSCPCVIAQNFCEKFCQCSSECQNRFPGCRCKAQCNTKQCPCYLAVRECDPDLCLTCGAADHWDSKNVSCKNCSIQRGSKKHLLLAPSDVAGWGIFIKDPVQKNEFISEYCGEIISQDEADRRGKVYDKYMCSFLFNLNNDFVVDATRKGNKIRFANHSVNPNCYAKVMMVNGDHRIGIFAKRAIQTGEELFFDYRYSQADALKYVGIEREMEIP

[2] = target: T2, Protein deacetylase HDAC6 (Homo sapiens, UniProt Q9UBN7); experiment: Inhibition of human recombinant HDAC6 using AMC-K(Ac)GL as substrate by fluorescence based assay
T2 sequence (Q9UBN7 whole entry): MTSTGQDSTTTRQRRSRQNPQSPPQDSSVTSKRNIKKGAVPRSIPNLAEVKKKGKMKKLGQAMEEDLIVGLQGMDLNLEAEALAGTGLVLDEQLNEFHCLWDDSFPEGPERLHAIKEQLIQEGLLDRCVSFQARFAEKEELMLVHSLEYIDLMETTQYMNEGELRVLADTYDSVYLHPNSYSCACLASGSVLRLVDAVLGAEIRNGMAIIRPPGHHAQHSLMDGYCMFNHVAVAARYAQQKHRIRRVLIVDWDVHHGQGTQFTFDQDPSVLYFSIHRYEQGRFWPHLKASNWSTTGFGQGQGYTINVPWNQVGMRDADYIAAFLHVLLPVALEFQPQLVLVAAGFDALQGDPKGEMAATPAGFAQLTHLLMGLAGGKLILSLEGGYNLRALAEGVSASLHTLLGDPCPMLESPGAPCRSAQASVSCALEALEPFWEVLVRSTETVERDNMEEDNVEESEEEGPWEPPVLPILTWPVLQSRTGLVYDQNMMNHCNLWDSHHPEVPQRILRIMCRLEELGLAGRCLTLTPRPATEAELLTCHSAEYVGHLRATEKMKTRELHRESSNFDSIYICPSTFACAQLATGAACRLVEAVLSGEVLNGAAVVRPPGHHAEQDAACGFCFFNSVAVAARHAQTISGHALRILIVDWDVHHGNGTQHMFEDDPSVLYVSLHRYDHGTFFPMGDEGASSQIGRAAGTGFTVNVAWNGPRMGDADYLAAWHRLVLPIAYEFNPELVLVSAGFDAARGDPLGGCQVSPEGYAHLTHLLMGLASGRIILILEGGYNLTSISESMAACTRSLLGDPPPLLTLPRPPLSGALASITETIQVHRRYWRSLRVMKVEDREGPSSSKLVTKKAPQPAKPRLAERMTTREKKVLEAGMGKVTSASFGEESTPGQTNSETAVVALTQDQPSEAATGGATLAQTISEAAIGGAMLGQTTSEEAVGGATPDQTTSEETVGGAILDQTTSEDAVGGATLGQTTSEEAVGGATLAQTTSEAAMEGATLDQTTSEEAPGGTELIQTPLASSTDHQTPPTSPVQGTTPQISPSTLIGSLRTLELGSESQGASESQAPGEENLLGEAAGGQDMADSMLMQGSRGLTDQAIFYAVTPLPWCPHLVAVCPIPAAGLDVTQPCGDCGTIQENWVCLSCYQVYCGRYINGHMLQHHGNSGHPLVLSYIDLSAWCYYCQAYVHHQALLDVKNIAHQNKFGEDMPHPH

Histone deacetylase 1 = Histone deacetylase 1 (Homo sapiens, UniProt Q13547); experiment: Inhibition of human recombinant HDAC1 using AMC-K(Ac)GL as substrate by fluorescence based assay
Histone deacetylase 3 = Histone deacetylase 3 (Homo sapiens, UniProt O15379); experiment: Inhibition of human recombinant HDAC3 using AMC-K(Ac)GL as substrate by fluorescence based assay
Histone deacetylase 8 = target: T3, Histone deacetylase 8 (Homo sapiens, UniProt Q9BY41); experiment: Inhibition of human recombinant HDAC8 using AMC-K(Ac)GL as substrate by fluorescence based assay
T3 sequence (Q9BY41 whole entry): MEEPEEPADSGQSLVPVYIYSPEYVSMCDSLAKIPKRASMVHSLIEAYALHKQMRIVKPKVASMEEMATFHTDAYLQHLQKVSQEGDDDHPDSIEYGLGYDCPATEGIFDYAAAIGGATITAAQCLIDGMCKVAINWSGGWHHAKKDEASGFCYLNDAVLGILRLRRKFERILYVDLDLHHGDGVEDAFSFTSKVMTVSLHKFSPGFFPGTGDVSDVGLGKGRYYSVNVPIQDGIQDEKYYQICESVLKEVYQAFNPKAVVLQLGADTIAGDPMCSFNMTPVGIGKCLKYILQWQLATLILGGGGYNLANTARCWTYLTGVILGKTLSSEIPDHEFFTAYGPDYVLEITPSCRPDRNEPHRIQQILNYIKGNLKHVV

Histone deacetylase 2 = Histone deacetylase 2 (Homo sapiens, UniProt Q92769)
Description: Inhibition of human recombinant HDAC2 using AMC-K(Ac)GL as substrate by fluorescence based assay

[3] = target: T1, Histone-lysine N-methyltransferase EZH2; experiment: Inhibition of human EZH2 using core histone as substrate incubated for 1 hr by fluorescence based assay
Target sequence in this assay (Q15910 whole entry): as the sequence (Q15910 whole entry, looked up) above

Histone deacetylase 3, sequence (O15379 whole entry): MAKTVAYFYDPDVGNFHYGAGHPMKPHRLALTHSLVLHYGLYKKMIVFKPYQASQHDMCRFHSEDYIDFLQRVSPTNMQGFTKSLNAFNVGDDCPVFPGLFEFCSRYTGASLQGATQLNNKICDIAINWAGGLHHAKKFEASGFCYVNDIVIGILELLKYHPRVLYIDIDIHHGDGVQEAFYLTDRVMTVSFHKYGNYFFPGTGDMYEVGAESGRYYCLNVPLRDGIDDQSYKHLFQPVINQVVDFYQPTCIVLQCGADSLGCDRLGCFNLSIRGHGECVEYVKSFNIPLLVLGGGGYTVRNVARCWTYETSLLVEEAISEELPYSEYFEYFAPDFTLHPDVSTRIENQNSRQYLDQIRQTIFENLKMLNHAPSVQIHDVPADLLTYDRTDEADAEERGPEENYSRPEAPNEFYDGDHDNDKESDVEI
Histone deacetylase 1, sequence (Q13547 whole entry): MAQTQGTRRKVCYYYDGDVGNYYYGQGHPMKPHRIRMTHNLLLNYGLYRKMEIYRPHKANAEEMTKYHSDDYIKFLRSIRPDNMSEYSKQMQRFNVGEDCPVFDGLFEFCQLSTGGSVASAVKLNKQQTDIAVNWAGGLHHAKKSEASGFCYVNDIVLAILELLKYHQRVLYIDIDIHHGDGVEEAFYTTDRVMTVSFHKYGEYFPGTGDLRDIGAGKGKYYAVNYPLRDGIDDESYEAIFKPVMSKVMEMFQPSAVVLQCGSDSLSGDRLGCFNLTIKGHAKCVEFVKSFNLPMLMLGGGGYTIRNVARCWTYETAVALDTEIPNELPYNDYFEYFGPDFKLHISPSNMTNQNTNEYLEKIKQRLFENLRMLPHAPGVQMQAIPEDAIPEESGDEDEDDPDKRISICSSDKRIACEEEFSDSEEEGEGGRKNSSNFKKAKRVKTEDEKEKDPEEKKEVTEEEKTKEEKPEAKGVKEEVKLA
Histone deacetylase 2, sequence (Q92769 whole entry): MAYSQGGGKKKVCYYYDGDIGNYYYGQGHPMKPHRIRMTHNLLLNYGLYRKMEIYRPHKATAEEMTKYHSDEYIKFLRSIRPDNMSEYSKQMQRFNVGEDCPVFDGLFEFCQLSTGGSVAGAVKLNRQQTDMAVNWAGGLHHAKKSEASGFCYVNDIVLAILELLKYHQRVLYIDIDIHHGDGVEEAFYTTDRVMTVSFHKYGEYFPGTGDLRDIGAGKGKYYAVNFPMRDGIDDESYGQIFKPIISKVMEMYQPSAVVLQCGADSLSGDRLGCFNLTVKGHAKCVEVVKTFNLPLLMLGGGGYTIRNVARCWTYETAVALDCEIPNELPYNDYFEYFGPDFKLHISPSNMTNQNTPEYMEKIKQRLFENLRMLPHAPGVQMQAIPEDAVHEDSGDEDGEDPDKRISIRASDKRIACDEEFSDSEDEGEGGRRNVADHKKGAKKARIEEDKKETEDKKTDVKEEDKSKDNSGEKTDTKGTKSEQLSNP
Histone deacetylase 5, sequence (Q9UQL6 whole entry): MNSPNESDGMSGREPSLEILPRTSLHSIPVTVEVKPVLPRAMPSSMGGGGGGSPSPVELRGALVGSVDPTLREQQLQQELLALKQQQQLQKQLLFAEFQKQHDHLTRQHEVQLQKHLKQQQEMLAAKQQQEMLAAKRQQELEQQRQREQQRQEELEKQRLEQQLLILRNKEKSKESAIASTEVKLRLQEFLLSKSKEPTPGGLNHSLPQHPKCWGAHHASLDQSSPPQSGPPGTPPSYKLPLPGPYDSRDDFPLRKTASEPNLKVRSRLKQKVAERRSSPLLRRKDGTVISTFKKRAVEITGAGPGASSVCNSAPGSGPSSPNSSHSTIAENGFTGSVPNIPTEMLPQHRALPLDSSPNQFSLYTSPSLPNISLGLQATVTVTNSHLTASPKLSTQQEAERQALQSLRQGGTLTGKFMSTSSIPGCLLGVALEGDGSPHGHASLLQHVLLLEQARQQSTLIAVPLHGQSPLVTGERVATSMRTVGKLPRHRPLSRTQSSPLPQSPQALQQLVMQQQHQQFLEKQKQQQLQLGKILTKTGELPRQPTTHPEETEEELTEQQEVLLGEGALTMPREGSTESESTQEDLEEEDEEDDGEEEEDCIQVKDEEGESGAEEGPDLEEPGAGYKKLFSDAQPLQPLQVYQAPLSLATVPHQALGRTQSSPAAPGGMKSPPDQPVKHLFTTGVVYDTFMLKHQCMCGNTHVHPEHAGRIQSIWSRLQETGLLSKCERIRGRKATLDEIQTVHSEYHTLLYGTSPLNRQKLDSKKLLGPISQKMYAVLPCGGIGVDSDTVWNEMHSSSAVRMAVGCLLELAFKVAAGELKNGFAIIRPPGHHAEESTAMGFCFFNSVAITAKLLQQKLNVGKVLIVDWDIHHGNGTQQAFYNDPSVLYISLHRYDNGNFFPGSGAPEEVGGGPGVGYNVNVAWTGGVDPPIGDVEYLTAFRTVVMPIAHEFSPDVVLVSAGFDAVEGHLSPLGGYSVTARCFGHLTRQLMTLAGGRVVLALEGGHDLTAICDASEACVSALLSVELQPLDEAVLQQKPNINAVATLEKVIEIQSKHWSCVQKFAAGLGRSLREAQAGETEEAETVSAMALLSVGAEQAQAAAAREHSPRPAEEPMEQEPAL

Compound	pIC50 (Histone deacetylase 5)	inhibition [1] [%]	pIC50 [2]	pIC50 (Histone deacetylase 1)	pIC50 (Histone deacetylase 3)	pIC50 (Histone deacetylase 8)	pIC50 (Histone deacetylase 2)	pIC50 [3]
Cc1cc(C)c(CNC(=O)c2cnn(-c3cccc(NC(=O)CCCCCCC(=O)NO)c3)c2C)c(=O)[nH]1	4.00	4	8.00	6.08	5.83	5.68	5.63	–
Cc1cc(C)c(CNC(=O)c2cnn(-c3ccccc3)c2C)c(=O)[nH]1	–	–	–	–	–	–	–	4.81
